Structures can show the parent of a compound that is named as a salt.
How the values were obtained:
recombinant human DGAT1 = biological target: T1, recombinant human DGAT1 (Homo sapiens, UniProt O75907); test: Diacylglycerol Acyltransferase (DGAT) Assay; format: biochemical; details: membranes from Sf9 cells expressing recombinant human DGAT1; 2-monooleoylglycerol and [3H]-oleoyl-CoA as substrates; read-out: IC50 against the DGAT1 enzyme
T1 construct: made in house; host or cells: Sf9 insect cells (baculovirus), membrane preparation
T1 sequence (O75907 1-488): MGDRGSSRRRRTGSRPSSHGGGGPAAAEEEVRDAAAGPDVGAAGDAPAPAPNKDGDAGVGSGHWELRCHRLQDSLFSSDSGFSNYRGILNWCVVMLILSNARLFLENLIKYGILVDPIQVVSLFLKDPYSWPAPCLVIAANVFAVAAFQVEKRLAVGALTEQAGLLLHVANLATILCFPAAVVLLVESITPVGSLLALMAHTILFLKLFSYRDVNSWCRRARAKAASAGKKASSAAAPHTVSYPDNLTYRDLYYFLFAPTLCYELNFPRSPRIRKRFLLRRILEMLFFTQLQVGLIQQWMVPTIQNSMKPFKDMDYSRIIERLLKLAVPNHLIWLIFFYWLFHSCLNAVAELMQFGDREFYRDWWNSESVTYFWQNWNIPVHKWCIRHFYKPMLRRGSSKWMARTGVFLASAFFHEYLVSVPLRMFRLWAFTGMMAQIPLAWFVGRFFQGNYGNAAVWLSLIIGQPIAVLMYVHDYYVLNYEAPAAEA
Procedure: Diacylglycerol Acyltransferase (DGAT) Assay
DGAT1 enzyme was assayed using membranes isolated from Sf9 cells expressing the recombinant human DGAT1 cDNA with 2-monooleoylglycerol and [^3H]-oleoyl-CoA as substrates as described by Seethala et al. (Anal Biochem., 383(2):144-150 (Dec. 15, 2008)). Briefly, the assays were conducted in 384-well plates in a total volume of 30 μl at 25° C. In each assay, 200 ng of recombinant human DGAT1 membrane was incubated with 10 μM of 2-monooleoylglycerol and 15 μM of [^3H]-oleoyl-CoA in 100 mM potassium phosphate (pH 7.4) for 20 min with various concentrations of compounds delivered in DMSO. The assay was terminated by the addition of 20 μl of Stopping Solution (7.5 mg/ml Yittrium Oxide Polylysine beads, 3.3 mg/ml Fraction V BSA and 200 μM Mercuric chloride in 50 mM HEPES, pH 7.4). The signal was measured 1 h after quenching the reaction using LEADSEEKER^SM for 5 minutes. To calculate the degree of inhibition, the zero level of enzyme activity (blank) was defined by the above assay procedure using membrane form Sf9 cell uninfected with baculovirus (Naive) and the 100% level of DGAT1 enzyme activity was defined by human […] DGAT1 assay with the vehicle DMSO. The IC50s of inhibitors were determined by logistic 4 parameter equation in XL-fit.

recombinant human TGR5 = biological target: T2, recombinant human TGR5 (Homo sapiens, UniProt Q8TDU6); test: cAMP assay (cAMP accumulation, HTRF) in CHOK1 cells stably expressing TGR5; format: cell-based; details: CHOK1 cells stably expressing human TGR5, 30 minutes at RT, 1% DMSO
T2 construct: expressed in transfected cells
T2 sequence (Q8TDU6 1-330): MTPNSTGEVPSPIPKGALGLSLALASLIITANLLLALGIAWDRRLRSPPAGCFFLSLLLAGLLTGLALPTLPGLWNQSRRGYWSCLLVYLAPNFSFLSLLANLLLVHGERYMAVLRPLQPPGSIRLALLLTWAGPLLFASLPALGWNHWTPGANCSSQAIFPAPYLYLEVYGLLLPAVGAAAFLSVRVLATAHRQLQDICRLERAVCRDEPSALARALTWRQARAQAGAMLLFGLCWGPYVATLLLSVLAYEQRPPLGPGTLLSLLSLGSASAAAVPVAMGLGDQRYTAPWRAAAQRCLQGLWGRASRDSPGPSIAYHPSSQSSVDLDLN
Procedure, shortened: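 CHOK1 cells stably expressing TGR5 (text also calls it chimeric human/mouse), 0.4-0.5×10^6 cells/mL in PBS with Ca/Mg and 0.1 mM IBMX, compound 30 min at RT, 1% DMSO. cAMP by HTRF 665/620 interpolated to a standard curve; EC50 from 4-parameter fit as half-maximal increase.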

Structure (SMILES)	IC50 (recombinant human DGAT1) [µM]	EC50 (recombinant human TGR5) [µM]
Cc1c(Cl)cccc1OCCCC(=O)N1C[C@@H]2C[C@@H]2c2c(-c3cnn(Cc4cccc(C(=O)O)c4)c3)cccc21 (single isomer, unassigned) [Example 231]	> 10	0.047
Cc1cccc(OCCCC(=O)N2C[C@@H]3C[C@@H]3c3c(-c4cccc(COC(=O)NCCC(=O)O)c4)cccc32)c1C (single isomer, unassigned) [Example 237]	> 10	
Cc1cccc(OCCCC(=O)N2CCCc3c(-c4cnn(CC(=O)O)c4)cccc32)c1C [Example 1, 2-(4-(1-(4-(2,3-Dimethylphenoxy)butanoyl)-1,2,3,4-tetrahydroquinolin-5-yl)-1H-pyrazol-1-yl)acetic acid]	> 10	3.54
Cc1cccc(OCCCC(=O)N2CC3CC3c3c(-c4cnn(Cc5c(F)cc(C(=O)NCCC[C@H](N)C(=O)O)cc5Cl)c4)cccc32)c1C (stereo partly drawn) [Example 69A, (2S)-2-Amino-5-(3-chloro-4-((4-(3-(4-(2,3-dimethylphenoxy)butanoyl)-1a,2,3,7b-tetrahydro-1H-cyclopropa[c]quinolin-7-yl)-1H-pyrazol-1-yl)methyl)-5-fluorobenzamido)pentanoic acid]	> 10	
Cc1cccc(OCCCC(=O)N2CCCc3c(-c4cnn(Cc5cccc(OCCP(=O)(O)O)c5)c4)cccc32)c1C [Example 69M, 2-(3-((4-(1-(4-(2,3-Dimethylphenoxy)butanoyl)-1,2,3,4-tetrahydroquinolin-5-yl)-1H-pyrazol-1-yl)methyl)phenoxy)ethylphosphonic acid]	> 10	
Cc1cccc(OCCCC(=O)N2CCCc3c(-c4cnn(Cc5cccc(NC(=O)NCS(=O)(=O)O)c5)c4)cccc32)c1C [Example 86, (3-(3-((4-(1-(4-(2,3-Dimethylphenoxy)butanoyl)-1,2,3,4-tetrahydroquinolin-5-yl)-1H-pyrazol-1-yl)methyl)phenyl)ureido)methanesulfonic acid]	> 10	
Cc1c(Cl)cccc1OCCCC(=O)N1C[C@@H]2C[C@@H]2c2c(-c3cnn(Cc4cccc(C(=O)NCCS(=O)(=O)O)c4)c3)cccc21 [Example 138A, 2-(3-((4-((1aR,7bS)-3-(4-(3-Chloro-2-methylphenoxy)butanoyl)-1a,2,3,7b-tetrahydro-1H-cyclopropa[c]quinolin-7-yl)-1H-pyrazol-1-yl)methyl)benzamido) ethanesulfonic acid]	> 10	0.024
Cc1cccc(OCCCC(=O)N2CCCc3c(-c4cnn(Cc5cccc(OCCS(=O)(=O)O)c5)c4)cccc32)c1C [Example 215, 2-(3-((4-(1-(4-(2,3-Dimethylphenoxy)butanoyl)-1,2,3,4-tetrahydroquinolin-5-yl)-1H-pyrazol-1-yl)methyl)phenoxy)ethanesulfonic acid]	> 10	

The next lines start with the values.

IC50 (recombinant human DGAT1) [µM]	EC50 (recombinant human TGR5) [µM]	Structure (SMILES)
> 10		Cc1cccc(OCCCC(=O)N2CCCc3c(-c4ccnc(Nc5ccc(C(=O)O)cc5)c4)cccc32)c1C [Example 168A, 4-(4-(1-(4-(2,3-Dimethylphenoxy)butanoyl)-1,2,3,4-tetrahydroquinolin-5-yl)pyridin-2-ylamino) benzoic acid]
> 10		Cc1cccc(OCCCC(=O)N2CCOc3c(-c4cnn(Cc5cccc(NC(=O)NCCS(=O)(=O)O)c5)c4)cccc32)c1C [Example 177N, 2-(3-(3-((4-(4-(4-(2,3-Dimethylphenoxy)butanoyl)-3,4-dihydro-2H-benzo[b][1,4]oxazin-8-yl)-1H-pyrazol-1-yl)methyl)phenyl)ureido) ethanesulfonic acid]
> 10		Cc1cccc(OCCCC(=O)N2CCOc3c(-c4cnn(Cc5c(F)cc(C(=O)NCC[N+](C)(C)C)cc5Cl)c4)cccc32)c1C [Example 177P, 2-(3-Chloro-4-((4-(4-(4-(2,3-dimethylphenoxy)butanoyl)-3,4-dihydro-2H-benzo[b][1,4]oxazin-8-yl)-1H-pyrazol-1-yl)methyl)-5-fluorobenzamido)-N,N,N-trimethylethanaminium, TFA]
